Measurements from BigSolDB 2.1.

In the case of `OCC1(O)OC[C@@H](O)[C@@H](O)[C@H]1O` (some centres undefined), the solubility (mole fraction) (in 2-butanone, 283.15 K) is reported as 0.000516, the solubility (mole fraction) (in 2-butanone, 288.15 K) is reported as 0.000587 and the solubility (mole fraction) (in 2-butanone, 293.15 K) is reported as 0.000946. The solubility (mole fraction) (in 2-butanone, 298.15 K) was 0.00144, the solubility (mole fraction) (in 2-butanone, 303.15 K) was 0.00198 and the solubility (mole fraction) (in 2-butanone, 308.15 K) was 0.00264. It also gave a solubility (mole fraction) (in 2-butanone, 313.15 K) of 0.0033, a solubility (mole fraction) (in 2-butanone, 318.15 K) of 0.00464 and a solubility (mole fraction) (in 2-butanone, 323.15 K) of 0.00552. It also gave a solubility (mole fraction) (in acetone, 283.15 K) of 0.000606, a solubility (mole fraction) (in acetone, 288.15 K) of 0.000752 and a solubility (mole fraction) (in acetone, 293.15 K) of 0.00104. For the same compound, the solubility (mole fraction) (in acetone, 298.15 K) was 0.00158, the solubility (mole fraction) (in acetone, 303.15 K) was 0.00219 and the solubility (mole fraction) (in acetone, 308.15 K) was 0.00299. The solubility (mole fraction) (in acetone, 313.15 K) was 0.00376, the solubility (mole fraction) (in acetone, 318.15 K) was 0.0049 and the solubility (mole fraction) (in acetonitrile, 283.15 K) was 0.000226. It also gave a solubility (mole fraction) (in acetonitrile, 288.15 K) of 0.000283, a solubility (mole fraction) (in acetonitrile, 293.15 K) of 0.000367 and a solubility (mole fraction) (in acetonitrile, 298.15 K) of 0.00047. The solubility (mole fraction) (in acetonitrile, 303.15 K) was 0.000627, the solubility (mole fraction) (in acetonitrile, 308.15 K) was 0.000861 and the solubility (mole fraction) (in acetonitrile, 313.15 K) was 0.00109. It also gave a solubility (mole fraction) (in acetonitrile, 318.15 K) of 0.00139, a solubility (mole fraction) (in acetonitrile, 323.15 K) of 0.00176 and a solubility (mole fraction) (in ethanol, 283.15 K) of 0.00369. The solubility (mole fraction) (in ethanol, 288.15 K) was 0.00446, the solubility (mole fraction) (in ethanol, 293.15 K) was 0.00588 and the solubility (mole fraction) (in ethanol, 298.15 K) was 0.00746. For the same compound, the solubility (mole fraction) (in ethanol, 303.15 K) was 0.00899, the solubility (mole fraction) (in ethanol, 308.15 K) was 0.0116 and the solubility (mole fraction) (in ethanol, 313.15 K) was 0.0147. It also gave a solubility (mole fraction) (in ethanol, 318.15 K) of 0.018, a solubility (mole fraction) (in ethanol, 323.15 K) of 0.0222 and a solubility (mole fraction) (in ethyl acetate, 283.15 K) of 0.00077. It also gave a solubility (mole fraction) (in ethyl acetate, 288.15 K) of 0.000993, a solubility (mole fraction) (in ethyl acetate, 293.15 K) of 0.00128 and a solubility (mole fraction) (in ethyl acetate, 298.15 K) of 0.00173. The solubility (mole fraction) (in ethyl acetate, 303.15 K) was 0.00217, the solubility (mole fraction) (in ethyl acetate, 308.15 K) was 0.00257 and the solubility (mole fraction) (in ethyl acetate, 313.15 K) was 0.00327. It also gave a solubility (mole fraction) (in ethyl acetate, 318.15 K) of 0.00379, a solubility (mole fraction) (in ethyl acetate, 323.15 K) of 0.00449 and a solubility (mole fraction) (in ethyl formate, 283.15 K) of 0.000243. The solubility (mole fraction) (in ethyl formate, 288.15 K) was 0.000356, the solubility (mole fraction) (in ethyl formate, 293.15 K) was 0.000493 and the solubility (mole fraction) (in ethyl formate, 298.15 K) was 0.000697. The solubility (mole fraction) (in ethyl formate, 303.15 K) was 0.00109, the solubility (mole fraction) (in ethyl formate, 308.15 K) was 0.00151 and the solubility (mole fraction) (in ethyl formate, 313.15 K) was 0.00193. For the same compound, the solubility (mole fraction) (in ethyl formate, 318.15 K) was 0.00275, the solubility (mole fraction) (in ethyl formate, 323.15 K) was 0.00346 and the solubility (mole fraction) (in isopropanol, 283.15 K) was 0.00147. The solubility (mole fraction) (in isopropanol, 288.15 K) was 0.00193, the solubility (mole fraction) (in isopropanol, 293.15 K) was 0.00254 and the solubility (mole fraction) (in isopropanol, 298.15 K) was 0.00368. It also gave a solubility (mole fraction) (in isopropanol, 303.15 K) of 0.00507, a solubility (mole fraction) (in isopropanol, 308.15 K) of 0.00673 and a solubility (mole fraction) (in isopropanol, 313.15 K) of 0.00893. For the same compound, the solubility (mole fraction) (in isopropanol, 318.15 K) was 0.0112, the solubility (mole fraction) (in isopropanol, 323.15 K) was 0.0143 and the solubility (mole fraction) (in methanol, 283.15 K) was 0.0162. For the same compound, the solubility (mole fraction) (in methanol, 288.15 K) was 0.0178, the solubility (mole fraction) (in methanol, 293.15 K) was 0.0212 and the solubility (mole fraction) (in methanol, 298.15 K) was 0.0273. For the same compound, the solubility (mole fraction) (in methanol, 303.15 K) was 0.0356, the solubility (mole fraction) (in methanol, 308.15 K) was 0.0512 and the solubility (mole fraction) (in methanol, 313.15 K) was 0.0705. For the same compound, the solubility (mole fraction) (in methanol, 318.15 K) was 0.0895, the solubility (mole fraction) (in methanol, 323.15 K) was 0.116 and the solubility (mole fraction) (in methyl acetate, 283.15 K) was 0.000227. The solubility (mole fraction) (in methyl acetate, 288.15 K) was 0.000298, the solubility (mole fraction) (in methyl acetate, 293.15 K) was 0.000389 and the solubility (mole fraction) (in methyl acetate, 298.15 K) was 0.000619. It also gave a solubility (mole fraction) (in methyl acetate, 303.15 K) of 0.000851, a solubility (mole fraction) (in methyl acetate, 308.15 K) of 0.00105 and a solubility (mole fraction) (in methyl acetate, 313.15 K) of 0.00139. For the same compound, the solubility (mole fraction) (in methyl acetate, 318.15 K) was 0.00187, the solubility (mole fraction) (in methyl acetate, 323.15 K) was 0.00231 and the solubility (mole fraction) (in n-butanol, 283.15 K) was 0.00111. For the same compound, the solubility (mole fraction) (in n-butanol, 288.15 K) was 0.00125, the solubility (mole fraction) (in n-butanol, 293.15 K) was 0.0018 and the solubility (mole fraction) (in n-butanol, 298.15 K) was 0.0024. It also gave a solubility (mole fraction) (in n-butanol, 303.15 K) of 0.00329, a solubility (mole fraction) (in n-butanol, 308.15 K) of 0.00456 and a solubility (mole fraction) (in n-butanol, 313.15 K) of 0.00579. It also gave a solubility (mole fraction) (in n-butanol, 318.15 K) of 0.00747, a solubility (mole fraction) (in n-butanol, 323.15 K) of 0.00952 and a solubility (mole fraction) (in n-butyl acetate, 283.15 K) of 0.000243. For the same compound, the solubility (mole fraction) (in n-butyl acetate, 288.15 K) was 0.000359, the solubility (mole fraction) (in n-butyl acetate, 293.15 K) was 0.000443 and the solubility (mole fraction) (in n-butyl acetate, 298.15 K) was 0.000593. The solubility (mole fraction) (in n-butyl acetate, 303.15 K) was 0.000796, the solubility (mole fraction) (in n-butyl acetate, 308.15 K) was 0.001 and the solubility (mole fraction) (in n-butyl acetate, 313.15 K) was 0.00131. For the same compound, the solubility (mole fraction) (in n-butyl acetate, 318.15 K) was 0.00165, the solubility (mole fraction) (in n-butyl acetate, 323.15 K) was 0.002 and the solubility (mole fraction) (in n-hexanol, 283.15 K) was 0.000659. The solubility (mole fraction) (in n-hexanol, 288.15 K) was 0.000835, the solubility (mole fraction) (in n-hexanol, 293.15 K) was 0.000961 and the solubility (mole fraction) (in n-hexanol, 298.15 K) was 0.00143. The solubility (mole fraction) (in n-hexanol, 303.15 K) was 0.00216, the solubility (mole fraction) (in n-hexanol, 308.15 K) was 0.00301 and the solubility (mole fraction) (in n-hexanol, 313.15 K) was 0.004. It also gave a solubility (mole fraction) (in n-hexanol, 318.15 K) of 0.00509, a solubility (mole fraction) (in n-hexanol, 323.15 K) of 0.00652 and a solubility (mole fraction) (in n-pentanol, 283.15 K) of 0.00133. It also gave a solubility (mole fraction) (in n-pentanol, 288.15 K) of 0.00134, a solubility (mole fraction) (in n-pentanol, 293.15 K) of 0.0017 and a solubility (mole fraction) (in n-pentanol, 298.15 K) of 0.00202. The solubility (mole fraction) (in n-pentanol, 303.15 K) was 0.00269, the solubility (mole fraction) (in n-pentanol, 308.15 K) was 0.00356 and the solubility (mole fraction) (in n-pentanol, 313.15 K) was 0.00448. It also gave a solubility (mole fraction) (in n-pentanol, 318.15 K) of 0.00561, a solubility (mole fraction) (in n-pentanol, 323.15 K) of 0.00721 and a solubility (mole fraction) (in n-propanol, 283.15 K) of 0.0015. The solubility (mole fraction) (in n-propanol, 288.15 K) was 0.00191, the solubility (mole fraction) (in n-propanol, 293.15 K) was 0.00234 and the solubility (mole fraction) (in n-propanol, 298.15 K) was 0.00335. The solubility (mole fraction) (in n-propanol, 303.15 K) was 0.00446, the solubility (mole fraction) (in n-propanol, 308.15 K) was 0.00567 and the solubility (mole fraction) (in n-propanol, 313.15 K) was 0.00751. It also gave a solubility (mole fraction) (in n-propanol, 318.15 K) of 0.00956, a solubility (mole fraction) (in n-propanol, 323.15 K) of 0.0121 and a solubility (mole fraction) (in sec-butanol, 283.15 K) of 0.001. It also gave a solubility (mole fraction) (in sec-butanol, 288.15 K) of 0.00178, a solubility (mole fraction) (in sec-butanol, 293.15 K) of 0.00238 and a solubility (mole fraction) (in sec-butanol, 298.15 K) of 0.00324. For the same compound, the solubility (mole fraction) (in sec-butanol, 303.15 K) was 0.0045, the solubility (mole fraction) (in sec-butanol, 308.15 K) was 0.00617 and the solubility (mole fraction) (in sec-butanol, 313.15 K) was 0.0079. It also gave a solubility (mole fraction) (in sec-butanol, 318.15 K) of 0.0105 and a solubility (mole fraction) (in sec-butanol, 323.15 K) of 0.0135.
